Measurements taken from patent US10870651B2, “Inhibitors of cyclin-dependent kinase 7 (CDK7)” (Dana-Farber Cancer Institute, Inc., priority 2014, dated 2020).

How the values were obtained:
CDK7 [1] = target: T1, CDK7 (Homo sapiens (Human), UniProt P50613); experiment: Inhibition of kinase activity, CDK7; assay type: biochemical; settings: co-factors cyclin H and MNAT1
Description: (§1) Compounds of the invention were assayed for activity against a variety of different kinases. Exemplary results are presented as calculated IC50 values (Table A1 & A2). In Table A1 and A2 “A” represents a calculated IC50 value of less than 100 nM; “B” represents a calculated IC50 value of greater than or equal to 100 nM and less than 1 μM; and “C” represents a calculated IC50 value of 1 μM or greater. The co-factors used for each kinase in the assays were as follows: CDK7: cyclin H and MNAT1; CDK2: cyclin A; CDK9: cyclin K.

Kelly neuroblastoma = experiment: Inhibition of cell proliferation (CellTiter-Glo), Kelly; assay type: cell-based; settings: 72 hours incubation, CellTiter-Glo, 4,000 cells/well
Description: (§2) Exemplary compounds of the invention were tested at different concentrations. Cells were plated in 96-well plates at the following seeding densities: Jurkat T-cell acute lymphoblastic leukemia 25,000 cells/well; HCT116 colorectal carcinoma 8,000 cells/well; Kelly neuroblastoma 4,000 cells/well. The cells were treated with various concentration of compounds (ranging from 1 nM to 10 μM). DMSO solvent with no compound served as a control. Following incubation for 72 hours, cell survival following treatment with exemplary compounds described herein was assessed by CellTiter-Glo® Luminescent cell viability assay (Promega). IC50 values were determined using GRAPHPAD PRISM 6 software. Exemplary results are shown in Table A3, wherein “A” represents a calculated IC50 value of less than 500 nM; “B” represents a calculated IC50 value of greater than or equal to 500 nM and less than 5000 μM; and “C” represents a calculated IC50 value of 5000 μM or greater

MELK = MELK (Homo sapiens (Human), UniProt Q14680); experiment: Inhibition of kinase activity, MELK; assay type: biochemical
Description: as §1

[2] = tested on: Jurkat T-cell acute lymphoblastic leukemia; experiment: Inhibition of cell proliferation (CellTiter-Glo), Jurkat; assay type: cell-based; settings: Homo sapiens, 72 hours incubation, CellTiter-Glo, 25,000 cells/well
Description: as §2

CDK2 = CDK2 (Homo sapiens (Human), UniProt P24941); experiment: Inhibition of kinase activity, CDK2; assay type: biochemical; settings: co-factor cyclin A
Description: as §1

CDK9 = CDK9 (Homo sapiens (Human), UniProt P50750); experiment: Inhibition of kinase activity, CDK9; assay type: biochemical; settings: co-factor cyclin K
Description: as §1

CHEK2 = CHEK2 (Homo sapiens (Human), UniProt O96017); experiment: Inhibition of kinase activity, CHEK2; assay type: biochemical
Description: as §1

FGR = FGR (Homo sapiens (Human), UniProt P09769); experiment: Inhibition of kinase activity, FGR; assay type: biochemical
Description: as §1

HIPK4 = HIPK4 (Homo sapiens (Human), UniProt Q8NE63); experiment: Inhibition of kinase activity, HIPK4; assay type: biochemical
Description: as §1

PRKCQ = PRKCQ (Homo sapiens (Human), UniProt Q04759); experiment: Inhibition of kinase activity, PRKCQ; assay type: biochemical
Description: as §1

RET = RET (Homo sapiens (Human), UniProt P07949); experiment: Inhibition of kinase activity, RET; assay type: biochemical
Description: as §1

SRC = SRC (Homo sapiens (Human), UniProt P12931); experiment: Inhibition of kinase activity, SRC; assay type: biochemical
Description: as §1

[3] = tested on: HCT116 colorectal carcinoma; experiment: Inhibition of cell proliferation (CellTiter-Glo), HCT116; assay type: cell-based; settings: Homo sapiens, HCT-116; 72 hours incubation, CellTiter-Glo, 8,000 cells/well
Description: as §2

CDK7 [4] = target: T1, CDK7; experiment: Labeling of CDK7 with an inhibitor (CAK complex, nano LC-MS); assay type: binding; settings: 10-fold molar excess of compound, 6 hrs at 37° C., trypsin digest
Description: CAK complex (Millipore cat#14-476) in 40 mM Hepes pH 7.4, 150 mM NaCl, 5% glycerol and 1 mM DTT with protease and phosphatase inhibitors was incubated with a 10-fold molar excess of Compound 101 for 6 hrs at 37° C. Proteins were resolved by SDS-PAGE, bands corresponding to CDK7 were digested in-gel with trypsin, and peptides analyzed by nano LC-MS using an Orbitrap XL mass spectrometer (ThermoFisher Scientific, San Jose, Calif.). Efficiency of labeling was estimated from the reduction in signal of the Cys312 containing peptide […] (SEQ ID NO: 3) compared to DMSO control. Signals from CDK7 peptides VPFLPGDSDLDQLTR (SEQ ID NO: 1) and LDFLGEGQFATVYK were used for normalization. See FIG. 1 for the total ion chromatograms (TIC) and extracted ion chromatograms (EIC) of the CDK7 peptides treated with DMSO (A-D) or Compound 101 (E-H). The labeled peptide was detected by mass spectrometry, as shown in the spectrum of FIG. 2.

T1 sequence (P50613 whole entry): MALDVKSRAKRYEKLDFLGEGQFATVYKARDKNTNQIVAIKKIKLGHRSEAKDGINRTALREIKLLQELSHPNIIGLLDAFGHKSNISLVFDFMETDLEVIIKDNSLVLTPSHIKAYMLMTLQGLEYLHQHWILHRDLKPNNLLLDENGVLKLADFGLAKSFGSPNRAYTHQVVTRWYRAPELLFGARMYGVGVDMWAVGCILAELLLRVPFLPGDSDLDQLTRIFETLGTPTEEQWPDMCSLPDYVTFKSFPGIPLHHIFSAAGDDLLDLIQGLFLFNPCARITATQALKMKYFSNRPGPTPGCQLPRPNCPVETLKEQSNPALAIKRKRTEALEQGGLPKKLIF
T1 sequence (P51946 whole entry partner): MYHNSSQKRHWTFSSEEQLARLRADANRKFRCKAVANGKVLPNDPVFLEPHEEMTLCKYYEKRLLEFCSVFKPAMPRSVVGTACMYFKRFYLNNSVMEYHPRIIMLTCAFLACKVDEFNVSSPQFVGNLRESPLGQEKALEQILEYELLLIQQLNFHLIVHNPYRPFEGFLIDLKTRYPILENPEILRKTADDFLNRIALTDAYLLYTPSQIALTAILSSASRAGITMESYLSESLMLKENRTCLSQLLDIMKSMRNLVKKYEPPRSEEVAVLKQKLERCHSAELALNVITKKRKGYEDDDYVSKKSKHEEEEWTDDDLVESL
T1 sequence (P51948 whole entry partner): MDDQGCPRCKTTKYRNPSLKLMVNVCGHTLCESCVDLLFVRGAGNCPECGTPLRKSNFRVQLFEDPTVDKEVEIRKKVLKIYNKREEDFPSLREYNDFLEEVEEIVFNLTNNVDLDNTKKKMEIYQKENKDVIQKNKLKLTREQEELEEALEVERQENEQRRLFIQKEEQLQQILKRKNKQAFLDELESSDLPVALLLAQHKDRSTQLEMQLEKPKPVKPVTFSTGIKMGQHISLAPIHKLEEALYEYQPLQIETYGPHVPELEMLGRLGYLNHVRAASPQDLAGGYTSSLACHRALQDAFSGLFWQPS
MELK, sequence (Q14680 whole entry): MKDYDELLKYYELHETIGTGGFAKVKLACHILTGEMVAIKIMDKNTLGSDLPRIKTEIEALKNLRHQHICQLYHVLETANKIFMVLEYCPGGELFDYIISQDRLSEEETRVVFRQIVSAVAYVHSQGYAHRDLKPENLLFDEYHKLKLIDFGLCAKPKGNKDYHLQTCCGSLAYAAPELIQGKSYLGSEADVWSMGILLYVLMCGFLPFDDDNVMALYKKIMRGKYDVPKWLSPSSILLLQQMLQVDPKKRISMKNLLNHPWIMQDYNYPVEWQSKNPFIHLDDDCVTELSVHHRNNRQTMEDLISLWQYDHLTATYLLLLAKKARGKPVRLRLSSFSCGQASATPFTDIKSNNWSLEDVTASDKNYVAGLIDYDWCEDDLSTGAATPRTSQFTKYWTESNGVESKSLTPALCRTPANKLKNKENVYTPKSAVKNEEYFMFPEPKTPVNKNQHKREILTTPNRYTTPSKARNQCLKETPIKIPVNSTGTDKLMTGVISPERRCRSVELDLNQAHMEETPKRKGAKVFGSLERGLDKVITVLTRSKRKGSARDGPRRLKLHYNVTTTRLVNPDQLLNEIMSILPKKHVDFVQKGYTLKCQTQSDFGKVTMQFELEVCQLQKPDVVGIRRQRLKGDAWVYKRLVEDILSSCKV
SRC, sequence (P12931 whole entry, looked up): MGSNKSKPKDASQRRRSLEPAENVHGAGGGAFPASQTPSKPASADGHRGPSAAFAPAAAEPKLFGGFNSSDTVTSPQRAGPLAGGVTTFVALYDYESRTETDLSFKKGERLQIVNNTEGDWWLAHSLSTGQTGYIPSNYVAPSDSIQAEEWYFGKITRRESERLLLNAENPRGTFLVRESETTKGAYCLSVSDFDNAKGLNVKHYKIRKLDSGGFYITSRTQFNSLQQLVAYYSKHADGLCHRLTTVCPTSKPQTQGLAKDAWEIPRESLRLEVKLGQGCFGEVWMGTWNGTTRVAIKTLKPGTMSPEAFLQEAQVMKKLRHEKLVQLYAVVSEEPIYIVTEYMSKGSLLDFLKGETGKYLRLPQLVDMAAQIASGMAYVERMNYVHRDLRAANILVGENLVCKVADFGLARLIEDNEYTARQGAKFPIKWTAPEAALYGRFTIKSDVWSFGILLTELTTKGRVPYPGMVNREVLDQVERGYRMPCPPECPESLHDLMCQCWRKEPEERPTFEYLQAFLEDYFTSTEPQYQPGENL
FGR, sequence (P09769 whole entry): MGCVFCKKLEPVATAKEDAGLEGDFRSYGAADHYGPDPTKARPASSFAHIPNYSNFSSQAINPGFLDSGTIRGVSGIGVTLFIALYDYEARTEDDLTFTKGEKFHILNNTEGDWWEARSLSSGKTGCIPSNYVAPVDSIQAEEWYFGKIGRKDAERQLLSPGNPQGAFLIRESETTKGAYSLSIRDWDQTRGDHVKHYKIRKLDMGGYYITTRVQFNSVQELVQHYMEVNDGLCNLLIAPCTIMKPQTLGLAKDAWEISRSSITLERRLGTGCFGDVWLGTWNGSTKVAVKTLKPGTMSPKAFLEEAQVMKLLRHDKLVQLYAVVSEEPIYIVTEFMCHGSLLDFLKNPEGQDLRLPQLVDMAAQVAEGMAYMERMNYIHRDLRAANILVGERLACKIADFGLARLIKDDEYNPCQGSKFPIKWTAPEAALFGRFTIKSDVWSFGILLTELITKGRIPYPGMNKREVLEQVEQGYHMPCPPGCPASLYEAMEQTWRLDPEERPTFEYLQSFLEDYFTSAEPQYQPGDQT
HIPK4, sequence (Q8NE63 whole entry): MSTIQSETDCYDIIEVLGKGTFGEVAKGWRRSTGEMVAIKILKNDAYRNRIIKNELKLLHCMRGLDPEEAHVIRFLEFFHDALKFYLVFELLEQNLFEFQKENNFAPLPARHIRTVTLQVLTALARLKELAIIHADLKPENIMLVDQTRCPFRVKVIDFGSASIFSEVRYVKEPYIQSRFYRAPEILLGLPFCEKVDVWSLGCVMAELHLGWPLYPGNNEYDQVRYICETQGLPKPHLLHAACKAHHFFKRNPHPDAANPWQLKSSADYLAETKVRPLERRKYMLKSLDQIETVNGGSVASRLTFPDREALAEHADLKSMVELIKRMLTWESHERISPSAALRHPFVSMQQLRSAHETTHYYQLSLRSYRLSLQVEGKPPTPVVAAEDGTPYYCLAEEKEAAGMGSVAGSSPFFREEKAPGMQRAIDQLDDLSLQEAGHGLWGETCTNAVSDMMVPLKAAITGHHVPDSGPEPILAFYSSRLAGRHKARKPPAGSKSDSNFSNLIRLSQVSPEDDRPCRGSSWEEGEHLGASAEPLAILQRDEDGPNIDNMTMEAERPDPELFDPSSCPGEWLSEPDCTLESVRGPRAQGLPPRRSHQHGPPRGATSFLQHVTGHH
CDK9, sequence (P50750 whole entry): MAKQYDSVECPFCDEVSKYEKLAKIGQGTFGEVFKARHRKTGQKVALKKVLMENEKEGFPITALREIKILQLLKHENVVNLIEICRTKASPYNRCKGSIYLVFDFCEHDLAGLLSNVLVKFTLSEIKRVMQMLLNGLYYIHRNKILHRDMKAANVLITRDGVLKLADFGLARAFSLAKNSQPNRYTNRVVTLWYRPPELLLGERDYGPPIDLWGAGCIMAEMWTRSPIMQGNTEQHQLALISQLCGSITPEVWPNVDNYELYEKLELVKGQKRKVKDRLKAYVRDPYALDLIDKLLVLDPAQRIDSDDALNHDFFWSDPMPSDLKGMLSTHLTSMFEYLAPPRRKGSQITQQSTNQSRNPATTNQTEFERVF
CDK9, sequence (O75909 whole entry partner): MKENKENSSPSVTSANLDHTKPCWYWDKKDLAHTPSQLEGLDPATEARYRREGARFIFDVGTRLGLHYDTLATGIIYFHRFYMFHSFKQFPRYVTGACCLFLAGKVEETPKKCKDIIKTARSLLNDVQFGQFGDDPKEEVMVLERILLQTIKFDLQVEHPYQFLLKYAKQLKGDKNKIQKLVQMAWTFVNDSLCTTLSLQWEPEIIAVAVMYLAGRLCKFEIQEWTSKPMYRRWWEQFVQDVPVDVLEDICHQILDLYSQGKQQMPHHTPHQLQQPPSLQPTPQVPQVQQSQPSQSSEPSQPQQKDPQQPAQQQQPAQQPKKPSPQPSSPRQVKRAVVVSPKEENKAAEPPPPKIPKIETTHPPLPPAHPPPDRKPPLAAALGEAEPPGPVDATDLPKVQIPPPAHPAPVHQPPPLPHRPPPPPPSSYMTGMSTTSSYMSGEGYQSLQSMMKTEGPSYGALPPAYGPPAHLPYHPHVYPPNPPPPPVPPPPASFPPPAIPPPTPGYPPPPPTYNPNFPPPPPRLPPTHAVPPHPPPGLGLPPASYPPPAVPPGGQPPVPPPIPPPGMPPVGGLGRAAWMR
PRKCQ, sequence (Q04759 whole entry): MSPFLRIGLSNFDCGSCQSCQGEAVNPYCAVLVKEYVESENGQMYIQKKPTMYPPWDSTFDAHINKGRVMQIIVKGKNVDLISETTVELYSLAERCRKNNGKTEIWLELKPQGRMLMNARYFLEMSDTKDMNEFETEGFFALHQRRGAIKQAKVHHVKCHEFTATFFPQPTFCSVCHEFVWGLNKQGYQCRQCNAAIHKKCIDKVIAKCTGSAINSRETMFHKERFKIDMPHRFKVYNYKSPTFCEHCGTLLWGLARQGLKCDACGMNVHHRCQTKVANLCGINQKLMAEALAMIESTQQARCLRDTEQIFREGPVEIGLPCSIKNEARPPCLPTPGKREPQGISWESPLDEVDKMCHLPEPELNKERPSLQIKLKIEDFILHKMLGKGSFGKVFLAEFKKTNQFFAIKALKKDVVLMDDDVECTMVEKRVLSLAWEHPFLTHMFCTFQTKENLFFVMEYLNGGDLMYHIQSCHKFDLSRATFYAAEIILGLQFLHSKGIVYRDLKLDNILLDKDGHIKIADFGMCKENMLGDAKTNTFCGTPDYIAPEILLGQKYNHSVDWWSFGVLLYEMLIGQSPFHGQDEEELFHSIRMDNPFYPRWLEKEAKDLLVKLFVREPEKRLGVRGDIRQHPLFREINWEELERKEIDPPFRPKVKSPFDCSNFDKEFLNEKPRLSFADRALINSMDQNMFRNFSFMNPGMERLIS

Row | SMILES | IC50 (CDK7 [1]) [µM] | IC50 (Kelly neuroblastoma) [µM] | also measured
1 | C=CC(=O)Nc1ccc(C(=O)Nc2cccc(C(=O)Nc3n[nH]c4c3CN(C(=O)N[C@H](CN(C)C)c3ccccc3)C4(C)C)c2)cc1 [Compound 112, (S)-3-(3-(4-acrylamidobenzamido)benzamido)-N-(2-(dimethylamino)-1-phenylethyl)-6,6-dimethyl-4,6-dihydropyrrolo[3,4-c]pyrazole-5(1H)-carboxamide] | < 0.1 | 0.5 to 5000 | 
2 | C=CC(=O)Nc1ccc(C(=O)Nc2cccc(Nc3n[nH]c4c3CN(C(=O)NCCN(C)C)C4(C)C)c2)cc1 [Compound 106, 3-((3-(4-acrylamidobenzamido)phenyl)amimo)-N-(2-(dimethylamino)ethyl)-6,6-dimethyl-4,6-dihydropyrrolo[3,4-c]pyrazole-5(1H)-carboxamide] | 0.1 to 1 | ≥ 5000 | IC50 (MELK): 0.1 to 1 µM
3 | C=CC(=O)Nc1ccc(C(=O)Nc2cccc(Nc3n[nH]c4c3CN(C(=O)N3CCN(C)CC3)C4(C)C)c2)cc1 [Compound 107, 4-acrylamido-N-(3-((6,6-dimethyl-5-(4-methylpiperazine-1-carbonyl)-1,4,5,6-tetrahydropyrrolo[3,4-c]pyrazol-3-yl)amino)phenyl)benzamide] | < 0.1 |  | IC50 [2]: 0.5 to 5000 µM
4 | C=CC(=O)Nc1ccc(C(=O)Nc2cccc(Nc3n[nH]c4c3CN(C(=O)N[C@H](CN(C)C)c3ccccc3)C4(C)C)c2)cc1 [Compound 101, (S)-3-((3-(4-acrylamidobenzamido)phenyl)amino)-N-(2-(dimethylamino)-1-phenylethyl)-6,6-dimethyl-4,6-dihydropyrrolo[3,4-c]pyrazole-5(1H)-carboxamide] | < 0.1 | 0.5 to 5000 | IC50 (CDK2): ≥ 1 µM; IC50 (CDK9): ≥ 1 µM; IC50 (CHEK2): < 0.1 µM; IC50 (FGR): < 0.1 µM; IC50 (HIPK4): 0.1 to 1 µM; IC50 (PRKCQ): < 0.1 µM; IC50 (RET): < 0.1 µM; IC50 (SRC): < 0.1 µM; IC50 (MELK): 0.1 to 1 µM; IC50 [2]: < 0.5 µM; IC50 [3]: < 0.5 µM; Covalent labeling of CDK7 peptide detected by mass spectrometry (CDK7 [4]): labeled with Compound 101 at Cys312
5 | CCC(=O)Nc1ccc(C(=O)Nc2cccc(Nc3n[nH]c4c3CN(C(=O)N[C@H](CN(C)C)c3ccccc3)C4(C)C)c2)cc1 [Compound 104, (S)-N-(2-(dimethylamino)-1-phenylethyl)-6,6-dimethyl-3-((3-(4-propionamidobenzamido)phenyl)amino)-4,6-dihydropyrrolo[3,4-c]pyrazole-5(1H)-carboxamide] | < 0.1 |  | IC50 [2]: 0.5 to 5000 µM; IC50 [3]: 0.5 to 5000 µM
6 | C=CC(=O)Nc1ccc(C(=O)Nc2c3c(nn2C)C(C)(C)N(C(=O)N[C@H](CN(C)C)c2ccccc2)C3)cc1 [Compound 242, (S)-3-(4-acrylamidobenzamido)-N-(2-(dimethylamino)-1-phenylethyl)-2,6,6-trimethyl-2,6-dihydropyrrolo[3,4-c]pyrazole-5(4H)-carboxamide] | ≥ 1 |  | 
7 | C=CC(=O)N1CCCC(Nc2n[nH]c3c2CN(C(=O)N[C@H](CN(C)C)c2ccccc2)C3(C)C)C1 (stereo partly drawn) [Compound 232, 3-((1-acryloylpiperidin-3-yl)amino)-N-((S)-2-(dimethylamino)-1-phenylethyl)-6,6-dimethyl-4,6-dihydropyrrolo[3,4-c]pyrazole-5(1H)-carboxamide] | < 0.1 |  | 
8 | C=CC(=O)Nc1ccc(C(=O)NC2CCC(Nc3n[nH]c4c3CN(C(=O)N[C@H](CN(C)C)c3ccccc3)C4(C)C)CC2)cc1 (stereo partly drawn) [Compound 119, (S)-3-((4-(4-acrylamidobenzamido)cyclohexyl)amino)-N-(2-(dimethylamino)-1-phenylethyl)-6,6-dimethyl-4,6-dihydropyrrolo[3,4-c]pyrazole-5(1H)-carboxamide] | < 0.1 |  | 
9 | C=CC(=O)Nc1ccc(C(=O)Nc2ccc(Nc3n[nH]c4c3CN(C(=O)N[C@H](CN(C)C)c3ccccc3)C4(C)C)cc2)cc1 [Compound 102, (S)-3-((4-(4-acrylamidobenzamido)phenyl)amino)-N-(2-(dimethylamino)-1-phenylethyl)-6,6-dimethyl-4,6-dihydropyrrolo[3,4-c]pyrazole-5(1H)-carboxamide] | < 0.1 | ≥ 5000 | 
10 | C=CC(=O)Nc1cccc(C(=O)Nc2n[nH]c3c2CN(C(=O)N[C@H](CN(C)C)c2ccccc2)C3(C)C)c1 [Compound 120, (S)-3-(3-acrylamidobenzamido)-N-(2-(dimethylamino)-1-phenylethyl)-6,6-dimethyl-4,6-dihydropyrrolo[3,4-c]pyrazole-5(1H)-carboxamide] | < 0.1 |  | 
11 | CN(C)C/C=C/C(=O)Nc1ccc(C(=O)Nc2cccc(Nc3n[nH]c4c3CN(C(=O)N[C@H](CO)c3ccccc3)C4(C)C)c2)cc1 [Compound 109, (S,E)-3-((3-(4-(4-(dimethylamino)but-2-enamido)benzamido)phenyl)amino)-N-(2-hydroxy-1-phenylethyl)-6,6-dimethyl-4,6-dihydropyrrolo[3,4-c]pyrazole-5(1H)-carboxamide] | < 0.1 |  | 
12 | C=CC(=O)Nc1ccc(C(=O)N[C@@H]2CCC[C@@H](Nc3n[nH]c4c3CN(C(=O)N[C@H](CN(C)C)c3ccccc3)C4(C)C)C2)cc1 [Compound 118, 3-(((1R,3R)-3-(4-acrylamidobenzamido)cyclohexyl)amino)-N-((S)-2-(dimethylamino)-1-phenylethyl)-6,6-dimethyl-4,6-dihydropyrrolo[3,4-c]pyrazole-5(1H)-carboxamide] | < 0.1 |  | 
13 | C=CC(=O)N[C@H]1CC[C@H](C(=O)Nc2n[nH]c3c2CN(C(=O)N[C@H](CN(C)C)c2ccccc2)C3(C)C)CC1 [Compound 222, 3-((1r,4S)-4-acrylamidocyclohexane-1-carboxamido)-N-((S)-2-(dimethylamino)-1-phenylethyl)-6,6-dimethyl-4,6-dihydropyrrolo[3,4-c]pyrazole-5(1H)-carboxamide] | < 0.1 |  | 
